In patent US20250346903A1, “USE OF CONJUGATES OF MICRORNA AND CARDIAC TARGETING PEPTIDES FOR TREATING HEART FAILURE” (Georgetown University, priority 2022, published 2025):

Key:
Connexin 43 (CNX43) = assay: CNX43 phosphorylation in HCMs (immunostaining); format: cell-based, human; details: HCMs treated with PMA as a control
Experimental: Gap junction protein Connexin 43 (CNX43) is a known downstream target of PKC activity in cardiomyocytes. Thus, the effects of Ang2/PE and the CTP-microRNA106a on CNX43 in HCMs were studied. CNX43 is phosphorylated on serine 386 by PKCα. In untreated HCMs, gap junctions are prevalent (FIG. 14, Panel A), although only a few junctions are positive for phosphorylation of CNX43 (FIG. 14, Panel B). […] Phosphorylated CNX43 becomes widespread as HCMs are treated with Ang2/PE for 24 hours (FIG. 14, Panels E and F).

PKC = PKC localization in HCMs (anti-PKCα staining); format: cell-based, human; details: PMA 30 minutes
Description: One potential mechanism of increased PLCβ1 expression is increased PKC activity. Thus, PKC localization was studied in treated HCMs. […] In HCMs treated with Ang2/PE, PKC was translocated to the plasma membrane (FIG. 12, Panel C).

GRK2 = assay: Western blot of GRK2 in PE/Ang2-treated HCMs; format: cell-based, human; details: HCMs PE/Ang2 72 hours, then miRNA transfection
Experimental: The effects of miRNA17, miRNA20a, miRNA93, and miRNA106a on GRK2 signaling were assessed in HCMs treated with PE/Ang2. GRK2 has been identified to cause heart failure when mis-expressed.
The HCMs were subjected to 72 hours of PE/Ang2 treatment, and were subsequently treated with miRNA17, miRNA20a, miRNA93, or miRNA106a, or with the CTP-miRNA106a conjugate.

CaMKIIδ = assay: Western blot of CaMKIIδ in PE/Ang2-treated HCMs; format: cell-based, human; details: 200 nM miRNA transfected, within 72 hours
Experimental: (§1) Human cardiomyocytes (HCMs) were subjected to 200 nM phenylephrine (PE) and 10 nM angiotensin 2 (Ang2) to induce hypertrophy (initial stages of heart failure). The HCMs were treated with PE/Ang2 for 24, 48, 72, 96, or 144 hours. Using TransIT-X2 transfection reagent, 200 nM of each miRNA, or in combination, was introduced into PE/Ang2-treated HCMs, followed by analyses of hypertrophic morphology and heart failure gene/protein expression.
(§2) The CTP-miRNA106a conjugate suppressed translation of each protein, as confirmed in three separate experiments. A significant difference was observed between each of the CTP-miRNA106a conjugate-treated set and PE/Ang2-treated HCMs after 144 hours, and no significant difference was observed between each of the CTP-miRNA106a conjugate-treated HCMs and untreated HCMs.

HDAC4 [1] = assay: Western blot of HDAC4 in PE/Ang2-treated HCMs; format: cell-based, human; details: 200 nM miRNA transfected, within 72 hours
Experimental: as §1, §2

NfκB response element = NfκB response element luciferase assay in HCMs; format: cell-based, human; details: Ang2/PE 24 hours, miRNAs transfected
Description: Once in the nucleus NfκB binds to an NfκB response element to initiate transcription of downstream genes. To study how the CTP-miRNA106a conjugate can impact this effect, a plasmid containing an NfκB response element driving luciferase production (Promega, Inc) was used to generate HCMs expressing this NfκB luciferase response element. […] Moreover, the effect of miRNA106a on impacting Ang2/PE-induced luciferase expression in HCMs was compared to miRNA17, miRNA20a, and miRNA93.

3′UTR of PLCβ1 = assay: PLCβ1 3′UTR luciferase assay in HEK293 cells; format: cell-based, human; details: miRNA transfected 24 hours after plasmid
IL-6 = assay: FACS of IL-6 expressing HCMs; format: cell-based, human; details: miR106a transfected, then Ang2/PE
Description: (§3) To identify if activation of the NfκB pathway by Ang2/PE led to expression of genes that augment hypertrophy and heart failure, HCMs treated with Ang2/PE or treated with both Ang2/PE and the CTP-miRNA106a conjugated were compared to untreated control HCMs by FACS. […] In summary, the CTP-miRNA106a conjugated suppressed NfκB signaling activated by Ang2/PE.

CaMKIIδ 3′UTR = assay: 3′UTR-luciferase assay, CaMKIIδ; format: cell-based, human; details: miRNA106a with transfection reagent
GRK2 3′UTR = assay: 3′UTR-luciferase assay, GRK2 (control); format: cell-based, human; details: miRNA106a with transfection reagent; control without target sequence
IL-1β = assay: FACS of IL-1β expressing HCMs; format: cell-based, human; details: miR106a (without CTP) transfected, then Ang2/PE
Description: as §3

TNF-α = assay: FACS of TNF-α expressing HCMs; format: cell-based, human; details: miR106a transfected, then Ang2/PE
Description: as §3

[2] = system: Human cardiomyocytes (HCMs); assay: Hypertrophic morphology / cell size of PE/Ang2-treated HCMs; format: cell-based; details: 200 nM transfection, 72 hours, no PE/Ang2
Experimental: as §1
(§4) HDAC4 localization was also rescued by the CTP-miRNA106a conjugate. HDAC4 is nuclear in untreated HCMs (see FIG. 4, Panel C), but CaMKIIδ phosphorylation promotes HDAC4 movement into the cytoplasm (see FIG. 4, Panel D) (Hohl et al., 2013).

HDAC4 3′UTR = assay: 3′UTR-luciferase assay, HDAC4; format: cell-based, human; details: miRNA106a with transfection reagent
HCMs = assay: Mitochondrial membrane potential, JC-1 staining of HCMs; format: cell-based, human; details: 200 nM miRNA106a transfected, 72 hours
Experimental: The effects of miRNA106a on mitochondrial health was assessed using the mitochondrial membrane potential (MMP) probe JC-1 staining. Healthy MMP is observed as JC-1 forms J-aggregates that fluoresce red (˜594 nm) while unhealthy MMP is recognized as green (˜488 nm) JC-1 monomers.

HDAC4 [3] = assay: HDAC4 localization by immunofluorescence in HCMs; format: cell-based, human; details: HCMs PE/Ang2 72 hours, treatment 24 hours
Description: as §4

Row | Compound | phosphorylated CNX43 (Connexin 43 (CNX43)) | PKC localization (PKC) | GRK2 expression (GRK2) | CaMKIIδ overexpression induced by PE/Ang2 (CaMKIIδ) | HDAC4 overexpression induced by PE/Ang2 (HDAC4 [1]) | NfκB response element luciferase expression (NfκB response element) | decrease of luciferase activity (3′UTR of PLCβ1) [%] | IL-6 expression (IL-6) | CaMKIIδ 3′UTR luciferase expression (CaMKIIδ 3′UTR) | GRK2 3′UTR luciferase expression (GRK2 3′UTR) | IL-1β expression (IL-1β) | TNF-α expression (TNF-α) | growth in size (hypertrophy) in response to miRNA106a alone [2] | HDAC4 3′UTR luciferase expression (HDAC4 3′UTR) | JC-1 red:green ratio versus untreated (HCMs) | HDAC4 localization (HDAC4 [3])
1 | CCCCCCCCCCCCCC(=O)O[C@@H]1[C@@H](C)[C@@]2(O)[C@@H](C=C(CO)C[C@]3(O)C(=O)C(C)=C[C@@H]23)[C@@H]2C(C)(C)[C@]12OC(C)=O [PMA, phorbal myristate acetate] | the phosphorylation patterns are more robust | localized to the plasma membrane | – | – | – | – | – | – | – | – | – | – | – | – | – | –
2 | miRNA17: microRNA, RNA sequence CAAAGUGCUUACAGUGCAGGUAG (SEQ ID NO 2) (listed as RNA, chemistry not given here) | – | – | returned to baseline levels | suppressed | suppressed | suppressed luciferase expression significantly | – | – | – | – | – | – | – | – | – | –
3 | miRNA20a: microRNA, RNA sequence UAAAGUGCUUAUAGUGCAGGUAG (SEQ ID NO 3) (listed as RNA, chemistry not given here) | – | – | returned to baseline levels | suppressed | suppressed | lowered luciferase expression | – | – | – | – | – | – | – | – | – | –
4 | miRNA93: microRNA, RNA sequence CAAAGUGCUGUUCGUGCAGGUAG (SEQ ID NO 4) (listed as RNA, chemistry not given here) | – | – | returned to baseline levels | suppressed | suppressed | lowered luciferase expression | ~50 | – | – | – | – | – | – | – | – | –
5 | miRNA106a: microRNA, RNA sequence AAAAGUGCUUACAGUGCAGGUAG (SEQ ID NO 1) (chemistry not given here) | – | – | returned to baseline levels | suppressed | suppressed | suppressed luciferase expression significantly | ~80 | very similar results as IL-1β | targets the 3′UTRs of both CaMKIIδ and HDAC4 | no change in luciferase expression | reversal of IL-1ß expression back to normal, untreated levels | very similar results as IL-1β | did not appear to grow in size | targets the 3′UTRs of both CaMKIIδ and HDAC4 | no significant difference in red:green ratios | HDAC4 re-entry into the nucleus
